In ChEMBL document CHEMBL5331115, “Design, Synthesis, and Pharmacological Characterization of a Potent Soluble Epoxide Hydrolase Inhibitor for the Treatment of Acute Pancreatitis” (J Med Chem, 2023):
Activity calls are given as the source filed them. No cut-off for these calls is given here.

How the values were obtained:
[1] = test system: Mus musculus; experiment: Antiinflammatory activity in cerulein-induced CD-1 mouse assessed as reduction in pancreatic injury at 10 mg/kg, ip administered on 0.5 and 2.5 hrs post first cerulein administration measured after 6 hrs by Hematoxylin and eosin staining based analysis; type: functional, organism-based
[2] = molecular target: T1, Prostaglandin G/H synthase 2 (Mus musculus, UniProt Q05769); experiment: Inhibition of COX-2 in LPS-stimulated mouse J774 cells assessed as inhibition of PGE2 production pretreated for 2 hrs followed by stimulation with LPS measured after 24 hrs by ELISA analysis; type: cell-based
T1 sequence (Q05769 whole entry): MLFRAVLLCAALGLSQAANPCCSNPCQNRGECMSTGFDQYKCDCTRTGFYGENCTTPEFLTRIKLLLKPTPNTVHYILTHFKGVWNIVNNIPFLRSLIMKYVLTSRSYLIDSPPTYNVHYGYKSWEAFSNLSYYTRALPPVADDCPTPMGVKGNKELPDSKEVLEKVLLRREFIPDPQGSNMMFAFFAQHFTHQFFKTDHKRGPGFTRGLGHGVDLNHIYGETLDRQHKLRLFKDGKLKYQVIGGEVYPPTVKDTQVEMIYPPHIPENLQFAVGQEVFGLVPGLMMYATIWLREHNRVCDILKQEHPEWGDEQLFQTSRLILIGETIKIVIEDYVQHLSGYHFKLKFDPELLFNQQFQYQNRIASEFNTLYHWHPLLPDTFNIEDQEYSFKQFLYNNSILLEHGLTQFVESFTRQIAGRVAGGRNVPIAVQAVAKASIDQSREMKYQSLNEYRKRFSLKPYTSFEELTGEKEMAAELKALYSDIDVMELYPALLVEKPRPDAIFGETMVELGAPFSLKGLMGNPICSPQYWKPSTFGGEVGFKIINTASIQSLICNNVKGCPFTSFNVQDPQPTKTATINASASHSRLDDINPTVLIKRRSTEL

[3] = test system: Mus musculus; experiment: Antiinflammatory activity in cerulein-induced CD-1 mouse assessed as reduction in lung neutrophilia at 10 mg/kg, ip administered on 0.5 and 2.5 hrs post first cerulein administration measured after 6 hrs by Hematoxylin and eosin staining based analysis; type: functional, organism-based
[4] = test system: Mus musculus; experiment: Antiinflammatory activity in cerulein-induced CD-1 mouse assessed as reduction of neutrophil numbers at 10 mg/kg, ip administered on 0.5 and 2.5 hrs post first cerulein administration measured after 6 hrs by Hematoxylin and eosin staining based analysis; type: functional, organism-based
[5] = test system: Mus musculus; experiment: Antiinflammatory activity in cerulein-induced CD-1 mouse assessed as reduction in serum ALT at 10 mg/kg, ip administered on 0.5 and 2.5 hrs post first cerulein administration measured after 6 hrs by Hematoxylin and eosin staining based analysis; type: functional, organism-based
[6] = test system: Mus musculus; experiment: Antiinflammatory activity in cerulein-induced CD-1 mouse assessed as reduction in lung inflammation at 10 mg/kg, ip administered on 0.5 and 2.5 hrs post first cerulein administration measured after 6 hrs by Hematoxylin and eosin staining based analysis; type: functional, organism-based
[7] = test system: Mus musculus; experiment: Antiinflammatory activity in cerulein-induced CD-1 mouse assessed as reduction of cell infiltration at 10 mg/kg, ip administered on 0.5 and 2.5 hrs post first cerulein administration measured after 6 hrs by Hematoxylin and eosin staining based analysis; type: functional, organism-based
[8] = test system: Mus musculus; experiment: Antiinflammatory activity in cerulein-induced CD-1 mouse assessed as reduction in serum AST at 10 mg/kg, ip administered on 0.5 and 2.5 hrs post first cerulein administration measured after 6 hrs by Hematoxylin and eosin staining based analysis; type: functional, organism-based
[9] = test system: Mus musculus; experiment: Antiinflammatory activity in cerulein-induced CD-1 mouse assessed as reduction of edema at 10 mg/kg, ip administered on 0.5 and 2.5 hrs post first cerulein administration measured after 6 hrs by Hematoxylin and eosin staining based analysis; type: functional, organism-based

In the case of O=C(O)CCCCCCCCCCCNC(=O)NC12CC3CC(CC(C3)C1)C2, the Activity [1] is reported as “Active”.

For CC(C)c1ccc(Cn2ccc3cc(NC(=O)NCC45C[C@H]6C[C@@H](C4)C[C@@H](C5)C6)ccc32)cc1, the IC50 [2] was over 10 µM, the Activity [3] was “Active” and the Activity [4] was “Active”. The Activity [5] was “Active”, the Activity [6] was “Active” and the Activity [7] was “Active”. For the same molecule, the Activity [8] was “Active” and the Activity [9] was “Active”.
